# Source: ChEMBL document CHEMBL1144726, “"Virtual fragment linking": an approach to identify potent binders from low affinity fragment hits” (J Med Chem, 2008)
# Biological target: Estrogen receptor beta (Homo sapiens, UniProt Q92731)
# Sequence (Q92731 whole entry): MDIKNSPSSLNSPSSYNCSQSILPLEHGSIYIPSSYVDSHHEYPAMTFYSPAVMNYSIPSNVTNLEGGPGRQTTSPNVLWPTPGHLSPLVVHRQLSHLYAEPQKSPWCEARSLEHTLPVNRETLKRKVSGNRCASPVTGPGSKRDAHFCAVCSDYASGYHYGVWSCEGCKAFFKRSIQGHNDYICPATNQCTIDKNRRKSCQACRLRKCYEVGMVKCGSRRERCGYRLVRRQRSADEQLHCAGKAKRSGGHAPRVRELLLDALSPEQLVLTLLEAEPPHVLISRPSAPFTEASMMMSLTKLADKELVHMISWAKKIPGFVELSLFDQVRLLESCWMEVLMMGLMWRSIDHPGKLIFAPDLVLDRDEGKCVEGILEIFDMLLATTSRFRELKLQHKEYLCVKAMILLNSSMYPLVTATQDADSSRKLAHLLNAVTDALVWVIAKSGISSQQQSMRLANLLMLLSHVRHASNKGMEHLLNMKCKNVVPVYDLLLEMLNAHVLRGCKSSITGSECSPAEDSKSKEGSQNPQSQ
row,SMILES,IC50
1,Oc1ccc2nn(-c3ccccc3)cc2c1,10 µM
2,Cc1cc(-c2cccc(Cl)c2)ccc1O,2.1 µM
3,COc1ccc(-c2ccc(O)cc2)cc1,2.4 µM
4,N#Cc1ccccc1-c1ccc(O)cc1,1.8 µM
5,Nc1ccc(-c2ccc(O)cc2)cc1Cl,2.9 µM
6,Cc1cc(O)ccc1-c1ccccc1,4 µM
7,Oc1ccc(-c2cccc(F)c2)cc1,1.2 µM
8,Oc1ccc(-n2nc3ccccc3c2Cl)cc1,1.1 µM
9,Oc1ccc(-c2ccccc2)cc1Cl,3.1 µM

# Biological target: Nitric oxide synthase, inducible (Homo sapiens, UniProt P35228)
# Sequence (P35228 whole entry): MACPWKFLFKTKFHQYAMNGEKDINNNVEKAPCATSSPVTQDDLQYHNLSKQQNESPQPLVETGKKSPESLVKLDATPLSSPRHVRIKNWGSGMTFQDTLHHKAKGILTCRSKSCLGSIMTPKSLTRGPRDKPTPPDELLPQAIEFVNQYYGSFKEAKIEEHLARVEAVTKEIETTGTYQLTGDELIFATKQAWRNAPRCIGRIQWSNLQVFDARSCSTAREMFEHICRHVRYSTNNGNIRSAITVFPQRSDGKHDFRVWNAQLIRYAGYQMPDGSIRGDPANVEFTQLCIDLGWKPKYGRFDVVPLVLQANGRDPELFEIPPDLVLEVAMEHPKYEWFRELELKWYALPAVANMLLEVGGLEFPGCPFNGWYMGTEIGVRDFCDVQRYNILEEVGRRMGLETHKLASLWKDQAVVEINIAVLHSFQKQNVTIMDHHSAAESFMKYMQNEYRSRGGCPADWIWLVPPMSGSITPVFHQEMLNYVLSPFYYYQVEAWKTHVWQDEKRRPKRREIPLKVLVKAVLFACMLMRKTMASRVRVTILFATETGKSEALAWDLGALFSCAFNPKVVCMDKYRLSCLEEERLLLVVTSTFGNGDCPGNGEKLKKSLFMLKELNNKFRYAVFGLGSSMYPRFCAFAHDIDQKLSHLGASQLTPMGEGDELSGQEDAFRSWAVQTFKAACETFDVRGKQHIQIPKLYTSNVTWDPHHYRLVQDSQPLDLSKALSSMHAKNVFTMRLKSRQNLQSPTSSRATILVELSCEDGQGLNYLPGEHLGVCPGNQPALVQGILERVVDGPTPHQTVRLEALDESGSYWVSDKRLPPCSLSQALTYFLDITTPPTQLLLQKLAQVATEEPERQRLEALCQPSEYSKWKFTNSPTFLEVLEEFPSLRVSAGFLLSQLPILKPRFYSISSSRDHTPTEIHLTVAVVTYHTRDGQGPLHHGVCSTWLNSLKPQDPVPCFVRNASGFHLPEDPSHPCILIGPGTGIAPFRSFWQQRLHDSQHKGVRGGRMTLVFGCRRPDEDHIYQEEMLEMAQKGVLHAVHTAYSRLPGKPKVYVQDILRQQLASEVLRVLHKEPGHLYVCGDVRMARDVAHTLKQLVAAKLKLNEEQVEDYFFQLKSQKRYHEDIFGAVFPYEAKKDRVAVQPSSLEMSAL
row,SMILES,IC50
1,Cc1cccc2c1C(N)=NC(C1CCC1)N2 (stereo not given),1.2 µM
